# Experimental data from patent publication EP4596561A1, “PHOSPHORUS-CONTAINING COMPOUND, PHARMACEUTICAL COMPOSITION AND USE THEREOF” (Suzhou Genhouse Bio Co., Ltd., priority 2022, dated 2024).
# Like-named read-outs stand apart in the source and are kept apart here.
# Assays:
# [1] = tested on: YAP-TEAD transcription complex; assay: YAP-TEAD reporter gene assay (dual luciferase, stably transfected 293T cells); format: cell-based; details: Homo sapiens, HEK-293T
# Protocol: YAP-TEAD reporter gene The YAP-TEAD reporter gene assay was performed as follows. Firstly, the 8xGTIIC promoter sequence ([…] GTACTGTTGGTAAA) was constructed into a pGL4.20(luc2-Puro) plasmid, and the TK promoter ([…]) unrelated to the hippo pathway was constructed into a pGL4.78(hRlucCP/Hygro) plasmid, thereby constructing stably transfected 293T cells that can stably and continuously express the transcriptional activity of the YAP-TEAD transcription complex. After selection and identification of individual clones, the clones were grown and maintained in a DMEM medium containing 10% fetal bovine serum, penicillin-streptomycin solution, 1 µg/mL puromycin, and 150 µg/mL hygromycin. To perform reporter gene assays with the compounds to be tested, the well-growing cells described above were plated in a 384-well plate at a cell density of 3000 cells per well, with 90 µL per well. The periphery was sealed with an appropriate amount of PBS to prevent evaporation of water from the peripheral wells. Administration was performed on the next day after the cell plating. The test compounds were added at different concentration gradients, and three replicate wells were set for each concentration point. The compound concentration started at 5 µM and was diluted seven times with a 5-fold gradient. A corresponding negative control group treated with DMSO was also set up. After 24 h of drug treatment, the detection reagents were prepared first. The Dual-Lumi™ Firefly luciferase detection reagent and Dual-Lumi™ Renilla luciferase detection buffer were dissolved and brought to room temperature. […]. According to the amount of 100 µL of Dual-Lumi™ Renilla luciferase detection working solution required for the detection of each sample, an appropriate amount of Dual-Lumi™ Renilla luciferase detection working solution was prepared. […]. The cell culture plate was taken out and allowed to equilibrate at room temperature for 10 min (usually no more than 30 min). Then, 100 µL of Dual-Lumi™ Firefly luciferase detection reagent was added to each well of a 96-well plate (25 µL per well for the 384-well plate), and the mixture was mixed well. The mixture was then incubated at room temperature (about 25 °C) for 10 min to stabilize the luminescent signal, and then chemiluminescence was detected using a multimode microplate reader with a chemiluminescence detection function. Subsequently, the detection of Renilla luciferase began. Firstly, 100 µL of Dual-Lumi™ Renilla luciferase detection working solution was added to each well of a […] (25 µL per well for the 384-well plate), and the mixture was mixed well. The mixture was then incubated at room temperature (about 25 °C) for 10 min to stabilize the luminescent signal. Finally, chemiluminescence was detected using a multimode microplate reader with a chemiluminescence detection function. The obtained data were analyzed using GraphPad Prism 7.0 software. A sigmoidal dose-survival rate curve was plotted using a non-linear regression model, and the IC50 values were calculated.
# [2] = tested on: MSTO-211H (NF2 wide-type); assay: Inhibition of cell proliferation (CellTiter-Lumi); format: cell-based; details: Homo sapiens, 72 h + another 72 h treatment
# Protocol: (§1) NCI-H2052 (NF2 mutant), NCI-H226 (NF2 mutant), NCI-H2452 (NF2 wide-type), NCI-H28 (NF2 wide-type), and MSTO-211H (NF2 wide-type) cells were cultured in RPMI 1640 complete media.
# (§2) The normally growing cells described above were digested with a trypsin cell-digesting solution, centrifuged, counted, and then plated in a 96-well plate at a density of 1000 cells per well. Administration was performed 24 h after the cell plating. Inhibitors at different concentration gradients were added at 10 µL per well, and three replicate wells were set for each concentration point. The starting concentration was 20 µM and diluted 8 times with a 4-fold gradient. A corresponding negative control group treated with 0.1% DMSO was also set up. After 72 h of drug treatment, the cell culture plate to be tested was taken out of the incubator. The culture medium in the 96-well plate was pipetted, and 190 µL of fresh RPMI 1640 complete medium was added. Another administration was performed, and the cells were cultured for another 72 h. The 96-well plate was taken out and allowed to equilibrate at room temperature for 10 min. The medium in the 96-well plate was pipetted, and 200 µL of CellTiter-Lumi™ luminescent cell viability detection solution (mixed with a medium in a ratio of 1:1) was added. After shaking for two minutes, the mixture was reacted at room temperature for 10 min. Then, 150 µL of liquid was pipetted from the transparent 96-well plate and transferred to a white 96-well plate for chemiluminescence reading. The background value was subtracted from the value for each well to calculate the cell survival rate. Survival rate (%) = […]. Sample is the chemiluminescence of the drug-treated group, and Vehicle is the […] of the DMSO control group. A sigmoidal dose-survival rate curve was plotted using a non-linear regression model in the GraphPad Prism 7.0 software, and the IC50 values or GI50 values were calculated.
# [3] = tested on: NCI-H2452 (NF2 wide-type); assay: Inhibition of cell proliferation (CellTiter-Lumi); format: cell-based; details: Homo sapiens, 72 h + another 72 h treatment
# Protocol: as §1
# as §2, with “The medium in the 96-well plate was pipetted, and 200 µL of CellTiter-Lumi™ luminescent cell viability detection solution (mixed with a medium in a ratio of 1:1) was added.” left out
# [4] = tested on: NCI-H28 (NF2 wide-type); assay: Inhibition of cell proliferation (CellTiter-Lumi); format: cell-based; details: Homo sapiens, 72 h + another 72 h treatment
# Protocol: as §1
# as §2, with “The medium in the 96-well plate was pipetted, and 200 µL of CellTiter-Lumi™ luminescent cell viability detection solution (mixed with a medium in a ratio of 1:1) was added.” left out
# [5] = Stability test in liver microsomes; format: in vitro ADME, CD-1 mouse; details: mouse liver microsomes, 0.5 mg/mL, 1.0 µM substrate
# Protocol: (§3) Phase I metabolic stability of the test compounds in liver microsomes of CD-1 mice, Sprague-Dawley rats, and humans was assessed.
# (§4) The animal and human liver microsomes used in the test system were purchased from Xenotech, Corning, or other qualified suppliers and stored in a freezer at a temperature below -60 °C prior to use. The information of the animal and human liver microsomes used was as follows:
# (§5) The test samples and the reference compounds were separately incubated with animal and human liver microsomes at 37±1 °C for a period of incubation time of up to 60 min. The samples were taken out at the indicated time points, and the reaction was stopped with acetonitrile or another organic solvent containing an internal standard. After centrifugation, the resulting supernatants were assayed by the liquid chromatography-tandem mass spectrometry (LC-MS/MS) method.
# (§6) Microsomes of each species were diluted into a 2× working solution with a 100 mM potassium phosphate buffer. […]
# (§7) Incubation was performed in a 96-well plate. Eight incubation plates were prepared and designated T0, T5, T15, T30, T45, T60, Blank60, and NCF60, respectively. The first 6 plates corresponded to reaction time points of 0 min, 5 min, 15 min, 30 min, 45 min, and 60 min, respectively. No test sample or reference compound was added to the Blank60 plate, and samples were taken after 60 min of incubation. In the NCF60 plate, incubation was performed for 60 min using the potassium phosphate buffer instead of the NADPH regeneration system solution. Three replicates were made for samples in all conditions.
# (§8) The microsomes and the test sample or reference compound were mixed, and then the incubation plates Blank60, T5, T15, T30, T45, and T60 except for T0 and NCF60 were placed in a 37 °C water bath for pre-incubation for about 10 min. In the incubation plate T0, a stop solution was first added, followed by the addition of the NADPH regeneration system working solution, and 98 µL of the potassium phosphate buffer was added to each sample well of the incubation plate NCF60 to initiate the reaction. After the pre-incubation of the incubation plates Blank60, T5, T15, T30, T45, and T60 was completed, 98 µL of the NADPH regeneration system working solution was added to each sample well to initiate the reaction. The reaction temperature was 37±1 °C, the final volume of the reaction was 200 µL, and the reaction system included 0.5 mg/mL microsomes, 1.0 µM substrate, 1 mM NADP, 6 mM ISO, and 1 unit/mL IDH.
# (§9) At 5 min, 15 min, 30 min, 45 min, and 60 min, a cold stop solution containing an internal standard was added to the reaction plate to stop the reaction.
# (§10) All the reaction plates after the reaction was stopped were shaken well and centrifuged at 3220× g at 4 °C for 20 min. After the supernatant was diluted at a certain ratio, LC-MS/MS analysis was performed.
# (§11) Sample analysis was performed by the liquid chromatography-tandem mass spectrometry (LC-MS/MS) method without standard curves and quality control samples. Semi-quantitative determination was performed according to the ratio of the analyte peak area to the internal standard peak area. The retention times of the analyte and internal standard, the chromatogram acquisition, and chromatogram integration were processed using the Analyst software (Sciex, Framingham, Massachusetts, USA).
# (§12) According to the well stir model, the hepatic intrinsic clearance and hepatic clearance can be converted through the following formula. CL(liver) = (CLint(liver)×Qh)/(CLint(liver)+Qh) [formula]
# [6] = Stability test in liver microsomes; format: in vitro ADME, SD rat; details: rat liver microsomes, 0.5 mg/mL, 1.0 µM substrate
# Protocol: as §3, §4, §5, §6, §7, §8, §9, §10, §11, §12
# [7] = Pharmacokinetic test in mice (low dose); format: in vivo, Balb/c mice; details: mouse, in vivo, mice; for AUC(0-t): read-out: AUClast; for half-life: read-out: T1/2 (converted)
# Protocol: The compounds of the present disclosure were administered to Balb/c mice by single intravenous injection and oral gavage, and the plasma of the mice at each time point was collected. The concentration of the compounds to be tested in BALB/C plasma was detected using the LC-MS/MS analysis method, and pharmacokinetic analysis was performed.
# The mixture was vortexed, shaken, and ultrasonicated. The remaining volume of 25% sulfobutylether-β-cyclodextrin (sterilized) was added to prepare the final concentration solution or suspension.
# Intravenous injection formulations will be directly administered in animal experiments without filtration. The IV drug preparation vials were disinfected in an infrared sterilization cabinet one day in advance.
# Intravenous injection: Administration was performed via the tail vein. After the needle was inserted, the syringe was slowly […].
# Gavage: Gavage needle and syringe of an appropriate type were selected. The gavage needle was inserted from the root of the tongue into the esophagus until it reached near the cardia of the stomach, then the drug formulation was injected, and the gavage needle was withdrawn. When disposable plastic gavage needles were used, one needle was used for each group.
# At each time point, 60 µL of whole blood was collected from the submandibular vein or tail vein (except for the IV group). The blood sample was added to a pre-cooled anticoagulant blood collection tube containing anticoagulant EDTA-K2 (1 µL, 15% EDTA-K2 solution), placed on wet ice, and centrifuged (3000 g, 4 °C, 10 min) within 1 h. The plasma was immediately collected after centrifugation, transferred to an EP tube, and stored at -90 °C to -60 °C.
# Plasma concentration detection: A developed LC-MS/MS method was used to detect the compounds in plasma.
# The plasma concentration-time data were analyzed using a non-compartmental model in the Phoenix® WinNonlin® (Version 8.2, Pharsight, Mountain View, CA).
# [8] = Stability test in liver microsomes; format: in vitro ADME; details: Human liver microsomes, 0.5 mg/mL, 1.0 µM substrate
# Protocol: as §3, §4, §5, §6, §7, §8, §9, §10, §11, §12
# [9] = 293T reporter cells, 24 h of drug treatment, read-out: IC50
Structure (SMILES),"IC50 [1, 9]",IC50 [3],IC50 [4],IC50 [2],other results
Cn1cc2c3cc(P(C)(C)=O)ccc3n(-c3ccc(C(F)(F)F)cc3)c2n1 [Example 16],–,–,–,–,"IC50 ([1]; 24 h): 31.8 nM; half-life at 1 µM [5]: > 2.42 h; half-life at 1 µM [6]: > 2.42 h; MRT ([7]; IV 2 mg/kg): 3.6 h; AUC(0-t) ([7]; IV 2 mg/kg): 5.44 µM·h; clearance ([7]; IV 2 mg/kg, read-out: Cl (converted)): 13.3 mL/min/kg; half-life ([7]; IV 2 mg/kg): 2.7 h; MRT ([7]; PO 10 mg/kg): 5.3 h; bioavailability ([7]; PO 10 mg/kg vs IV 2 mg/kg, read-out: F%): 206%; AUC(0-t) ([7]; PO 10 mg/kg): 63.5 µM·h; Cmax ([7]; PO 10 mg/kg, read-out: Cmax): 7.17 µM; half-life ([7]; PO 10 mg/kg): 3.1 h; half-life at 1 µM [8]: > 2.42 h"
CP(C)(=O)c1cnc(Nc2ccc(C(F)(F)F)cc2)c(-n2cc(C(F)(F)F)cn2)c1 [Example 20],439 nM,–,> 20000 nM,> 1250 nM,–

# Second part, led by results:
"IC50 [1, 9]",IC50 [3],IC50 [4],Structure (SMILES),IC50 [2],other results
344 nM,> 20000 nM,> 5000 nM,Cn1cnc(-c2cc(P(C)(C)=O)ccc2Nc2ccc(C(F)(F)F)cn2)c1 [Example 13],> 20000 nM,–
–,> 1250 nM,> 20000 nM,CP(C)(=O)c1cnc(Nc2ccc(C(F)(F)F)cc2)c(-n2cccn2)c1 [Example 18],> 1250 nM,–
–,> 5000 nM,> 5000 nM,CP(C)(=O)c1ccc2c(c1)c1nccnc1n2-c1ccc(C(F)(F)F)cc1 [Example 19],628 nM,–
